target: BCL2 (Homo sapiens (Human), UniProt P10415); test: Molecular level activity test of anti-apoptotic protein BCL2 (HTRF, binding to Bim peptide); details: HTRF, binding of BCL2 to Bim peptide; read-out: BCL2 nM (inhibitory activity, IC50)
Summary of the method: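 HTRF readout; His-BCL2 + biotin-BIM peptide + cpd (2% DMSO in compound addition), 1 h; then anti-His + SA-XL665 detection reagents, 4 h RT.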

Sequence of BCL2 (P10415 whole entry): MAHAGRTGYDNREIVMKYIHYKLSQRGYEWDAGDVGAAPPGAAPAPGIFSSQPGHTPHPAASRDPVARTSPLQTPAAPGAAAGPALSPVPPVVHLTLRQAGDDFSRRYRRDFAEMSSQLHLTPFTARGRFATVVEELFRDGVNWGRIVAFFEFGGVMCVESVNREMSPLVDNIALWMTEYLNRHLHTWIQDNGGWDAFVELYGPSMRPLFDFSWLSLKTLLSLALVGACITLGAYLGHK

IC50, < 10 nM:
CC(C)c1ccccc1[C@@H]1CCCN1C1CC2(CCN(c3ccc(C(=O)NS(=O)(=O)c4cc([N+](=O)[O-])c(NCC5(F)CCOCC5)c5[nH]cnc45)c(N4CCCOc5nc6[nH]ccc6cc54)c3)CC2)C1 [compound 088, (S)-2-(3,4-dihydro-2H-pyrrolo[3′,2′:5,6]pyridino[2,3-b][1,4]oxazacyclohept-1 (7H)-yl)-N-((7-(((4-fluorotetrahydro-2H-pyran-4-yl)methyl)amino)-6-nitro-1H-benzo[d]imidazol-4-yl)sulfonyl)-4-(2-(2-(2-isopropylphenyl)pyrrolidin-1-yl)-7-azaspiro[3.5]non-7-yl)benzamide]
COc1ccc(CN2CCN(C3CC4(CCN(c5ccc(C(=O)NS(=O)(=O)c6cc([N+](=O)[O-])c(NC[C@H]7CC[C@](C)(O)CC7)c7[nH]cnc67)c(N6CCOc7nc8[nH]ccc8cc76)c5)CC4)C3)C(c3ccccc3C(C)C)C2)cc1 (some centres unmarked) [compound 089, 2-(2,3-dihydropyrrolo[3′,2′:5,6]pyridino[2,3-b][1,4]oxazin-1 (6H)-yl)-N-((7-((((1r,4r)-4-hydroxy-4-methylcyclohexyl)methyl)amino)-6-nitro-1H-benzo[d]imidazol-4-yl)sulfonyl)-4-(2-(2-(2-isopropylphenyl)-4-(4-methoxybenzyl)piperazin-1-yl)-7-azaspiro[3.5]non-7-yl)benzamide]
COc1ccc(CN2CCN(C3CC4(CCN(c5ccc(C(=O)NS(=O)(=O)c6cc([N+](=O)[O-])c(NC[C@H]7CC[C@](C)(O)CC7)c7[nH]cnc67)c(N6CCCOc7nc8[nH]ccc8cc76)c5)CC4)C3)C(c3ccccc3C(C)C)C2)cc1 (some centres unmarked) [compound 090, 2-(3,4-dihydro-2H-pyrrolo[3′,2′:5,6]pyridino[2,3-b][1,4]oxazacyclohept-1 (7H)-yl)-N-((7-((((1r,4r)-4-hydroxy-4-methylcyclohexyl)methyl)amino)-6-nitro-1H-benzo[d]imidazol-4-yl)sulfonyl)-4-(2-(2-(2-isopropylphenyl)-4-(4-methoxybenzyl)piperazin-1-yl)-7-azaspiro[3.5]non-7-yl)benzamide]
COc1ccc(CN2CCN(C3CC4(CCN(c5ccc(C(=O)NS(=O)(=O)c6cc([N+](=O)[O-])c(NCC7CCOCC7)c7[nH]cnc67)c(N6CCOc7nc8[nH]ccc8cc76)c5)CC4)C3)C(c3ccccc3C(C)C)C2)cc1 (centres unmarked) [compound 091, 2-(2,3-dihydropyrrolo[3′,2′:5,6]pyridino[2,3-b][1,4]oxazin-1 (6H)-yl)-4-(2-(2-(2-isopropylphenyl)-4-(4-methoxybenzyl)piperazin-1-yl)-7-azaspiro[3.5]non-7-yl)-N-((6-nitro-7-(((tetrahydro-2H-pyran-4-yl)methyl)amino)-1H-benzo[d]imidazol-4-yl)sulfonyl)benzamide]
COc1ccc(CN2CCN(C3CC4(CCN(c5ccc(C(=O)NS(=O)(=O)c6cc([N+](=O)[O-])c(NCC7CCOCC7)c7[nH]cnc67)c(N6CCCOc7nc8[nH]ccc8cc76)c5)CC4)C3)C(c3ccccc3C(C)C)C2)cc1 (centres unmarked) [compound 092, 2-(3,4-dihydro-2H-pyrrolo[3′,2′:5,6]pyridino[2,3-b][1,4]oxazacyclohept-1 (7H)-yl)-4-(2-(2-(2-isopropylphenyl)-4-(4-methoxybenzyl)piperazin-1-yl)-7-azaspiro[3.5]non-7-yl)-N-((6-nitro-7-(((tetrahydro-2H-pyran-4-yl)methyl)amino)-1H benzo[d]imidazol-4-yl)sulfonyl)benzamide]
COc1ccc(CN2CCN(C3CC4(CCN(c5ccc(C(=O)NS(=O)(=O)c6cc([N+](=O)[O-])c(NCC7(F)CCOCC7)c7[nH]cnc67)c(N6CCOc7nc8[nH]ccc8cc76)c5)CC4)C3)C(c3ccccc3C(C)C)C2)cc1 (centres unmarked) [compound 093, 2-(2,3-dihydropyrrolo[3′,2′:5,6]pyridino[2,3-b][1,4]oxazin-1 (6H)-yl)-N-((7-(((4-fluorotetrahydro-2H-pyran-4-yl)methyl)amino)-6-nitro-1H-benzo[d]imidazol-4-yl)sulfonyl)-4-(2-(2-(2-isopropylphenyl)-4-(4-methoxybenzyl)piperazin-1-yl)-7-azaspiro[3.5]non-7-yl)benzamide]
COc1ccc(CN2CCN(C3CC4(CCN(c5ccc(C(=O)NS(=O)(=O)c6cc([N+](=O)[O-])c(NCC7(F)CCOCC7)c7[nH]cnc67)c(N6CCCOc7nc8[nH]ccc8cc76)c5)CC4)C3)C(c3ccccc3C(C)C)C2)cc1 (centres unmarked) [compound 094, 2-(3,4-dihydro-2H-pyrrolo[3′,2′:5,6]pyridino[2,3-b][1,4]oxazacycloheptane-1 (7H)-yl)-N-((7-(((4-fluorotetrahydro-2H-pyran-4-yl)methyl)amino)-6-nitro-1H-benzo[d]imidazol-4-yl)sulfonyl)-4-(2-(2-(2-isopropylphenyl)-4-(4-methoxybenzyl)piperazin-1-yl)-7-azaspiro[3.5]non-7-yl)benzamide]
CC(C)c1ccccc1[C@@H]1CCCN1C1CC2(CCN(c3cc(Oc4cnc5[nH]ccc5c4)c(C(=O)NS(=O)(=O)c4cc([N+](=O)[O-])c(NC[C@H]5CC[C@](C)(O)CC5)c5occc45)cc3F)CC2)C1 [compound 095, 2-((1H-pyrrolo[2,3-b]pyrid-5-yl)oxy)-5-fluoro-N-((7-((((1r, 4r)-4-hydroxy-4-methylcyclohexyl)methyl)amino)-6-nitrobenzofuran-4-yl)sulfonyl)-4-(2-((S)-2-(2-isopropylphenyl)pyrrolidin-1-yl)-7-azaspiro[3.5]non-7-yl)benzamide]
CC(C)c1ccccc1[C@@H]1CCCN1C1CC2(CCN(c3cc(Oc4cnc5[nH]ccc5c4)c(C(=O)NS(=O)(=O)c4cc([N+](=O)[O-])c(NC[C@H]5CC[C@](C)(O)CC5)c5c4OCO5)cc3F)CC2)C1 [compound 096, 2-((1H-pyrrolo[2,3-b]pyrid-5-yl)oxy)-5-fluoro-N-((7-((((1r, 4r)-4-hydroxy-4-methylcyclohexyl)methyl)amino)-6-nitrobenzo[d][1,3]dioxocyclopent-4-yl)sulfonyl)-4-(2-((S)-2-(2-isopropylphenyl)pyrrolidin-1-yl)-7-azaspiro[3.5]non-7-yl)benzamide]
CC(C)c1ccccc1[C@@H]1CCCN1C1CC2(CCN(c3cc(Oc4cnc5[nH]ccc5c4)c(C(=O)NS(=O)(=O)c4cc([N+](=O)[O-])c(NC[C@H]5CC[C@](C)(O)CC5)c5ocnc45)cc3F)CC2)C1 [compound 097, 2-((1H-pyrrolo[2,3-b]pyrid-5-yl)oxy)-5-fluoro-N-((7-((((1r, 4r)-4-hydroxy-4-methylcyclohexyl)methyl)amino)-6-nitrobenzo[d]oxazol-4-yl)sulfonyl)-4-(2-((S)-2-(2-isopropylphenyl)pyrrolidin-1-yl)-7-azaspiro[3.5]non-7-yl)benzamide]
CC(C)c1ccccc1[C@@H]1CCCN1C1CC2(CCN(c3cc(Oc4cnc5[nH]ccc5c4)c(C(=O)NS(=O)(=O)c4cc([N+](=O)[O-])c(NC[C@H]5CC[C@](C)(O)CC5)c5scnc45)cc3F)CC2)C1 [compound 098, 2-((1H-pyrrolo[2,3-b]pyrid-5-yl)oxy)-5-fluoro-N-((7-((((1r, 4r)-4-hydroxy-4-methylcyclohexyl)methyl)amino)-6-nitrobenzo[d]thiazol-4-yl)sulfonyl)-4-(2-((S)-2-(2-isopropylphenyl)pyrrolidin-1-yl)-7-azaspiro[3.5]non-7-yl)benzamide]

— US20250034135A1, “ANTI-APOPTOTIC PROTEIN BCL-2 INHIBITOR, PHARMACEUTICAL COMPOSITION AND USES THEREOF” (HANGZHOU HEALZEN THERAPEUTICS CO., LTD., priority 2021, published 2025)
